# From patent publication US20240254119A1 (THIRD HARMONIC BIO, INC., priority 2022, published 2024)
# Legend:
# Kinetic solubility assay = type: physicochemical; conditions: kinetic solubility, 50 mM PB (pH 7.4), shaken 24 hours at RT
# Method in brief: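 Test compounds from 10 mM DMSO stock were diluted in 50 mM phosphate buffer, pH 7.4, and shaken for 24 h at RT. After PTFE filtration and centrifugation, filtrate concentration was quantified by UPLC-UV/HPLC-UV against a standard curve.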
# [1] = target: T1, BCRP (BCRP-MDCKII monolayer) (Homo sapiens, UniProt Q9UNQ0); assay: MDCKII-BCRP bidirectional transport assay; type: in vitro ADME
# T1 construct: host or cells: MDCKII (canine kidney) cells
# T1 sequence (Q9UNQ0 1-655): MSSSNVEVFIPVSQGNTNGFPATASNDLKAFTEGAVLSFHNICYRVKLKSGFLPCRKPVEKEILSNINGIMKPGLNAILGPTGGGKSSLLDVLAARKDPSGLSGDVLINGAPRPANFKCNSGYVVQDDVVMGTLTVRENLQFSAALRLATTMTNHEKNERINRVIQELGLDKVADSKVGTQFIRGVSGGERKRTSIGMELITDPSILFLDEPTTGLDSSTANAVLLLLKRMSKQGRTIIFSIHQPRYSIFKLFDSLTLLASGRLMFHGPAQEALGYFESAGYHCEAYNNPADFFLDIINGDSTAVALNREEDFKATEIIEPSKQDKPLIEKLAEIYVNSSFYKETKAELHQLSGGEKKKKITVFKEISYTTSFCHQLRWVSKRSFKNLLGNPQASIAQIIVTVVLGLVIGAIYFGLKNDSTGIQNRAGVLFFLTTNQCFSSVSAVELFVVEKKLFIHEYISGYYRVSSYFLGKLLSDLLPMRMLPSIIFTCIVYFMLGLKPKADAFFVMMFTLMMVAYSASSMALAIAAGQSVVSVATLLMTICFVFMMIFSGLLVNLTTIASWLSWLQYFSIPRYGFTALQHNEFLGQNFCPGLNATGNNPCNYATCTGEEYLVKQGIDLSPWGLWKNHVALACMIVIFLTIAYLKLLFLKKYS
# Method in brief: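 Bidirectional A→B and B→A transport across PreadyPort BCRP-MDCKII monolayers (days 12–15) was run in duplicate for 120 min at 37° C, 5% CO2 after a 15 min preincubation. Compound levels were measured by LC-MS/MS. Papp and recovery were calculated, with efflux ratio indicating transporter engagement.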
# wtKIT [2] = target: T2, wtKIT (Homo sapiens, UniProt P10721); assay: Caliper biochemical assay, wtKIT; conditions: Table 6, read-out: KIT Biochemical IC50 avg
# T2 construct: 1888289AM in the reaction mixtures
# Method in brief: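 Enzyme (5.0 nM wtKIT), 1 μM FAM-labelled peptide, 400 μM ATP and 10 mM MnCl2 in HEPES pH 7.5 with 1% DMSO, incubated 3 h at 25° C. EDTA quench; substrate and phosphoproduct separated by microfluidic electrophoresis and quantified by fluorescence.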
# CSF-1R [3] = target: T3, CSF-1R (Homo sapiens, UniProt P07333); assay: Caliper biochemical assay, CSF-1R; conditions: Table 6
# T3 construct: purchased Invitrogen PV3249 (lot 662393N)
# Method in brief: (§1)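 Kinase, FAM-labelled peptide substrate, ATP and Mn^2+ incubated with compound for 3 h at 25° C, then quenched with EDTA buffer. Substrate and phosphorylated product separated by microfluidic electrophoresis and quantified by fluorescence intensity; no-enzyme wells define 100% inhibition.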
# PDGFRα [4] = target: T4, PDGFRα (Homo sapiens, UniProt P16234); assay: Caliper biochemical assay, PDGFRα; conditions: Table 6
# T4 construct: purchased Millipore 14-467 (lot 26321_ACTI)
# Method in brief: as §1
# PDGFRα [5] = target: T4, PDGFRα; assay: HTRF biochemical assay, PDGFRα; conditions: Table 4, read-out: PDFGRα Biochemical IC50 avg
# Method: (§2) Exemplary compounds were tested for ability to inhibit the phosphorylation of a peptide substrate by the tyrosine kinase wt KIT, PDGFRα, or CSF-1R. Assay procedures and results are described below.
# (§3) Enzyme, substrate, and cofactors (ATP and Mn^2+) are combined in a well of a microtiter plate and incubated for 3 hours at 25° C. At the end of the incubation, the reaction is quenched by the addition of an EDTA-containing buffer.
# (§4) The substrate used in the CSF-1R and PDGFRα assay is FAM-[…]-CONH2 (FAM is carboxyfluorescein). Peptide should be >95% purity. The substrate for the KIT assay is FAM-[…]-NH2.
# (§5) • 1. To a well of a 384-wellplate add 5 μL of 2× enzyme buffer (or control). • 2. Add 100 nL of 100× compound. Enzyme and compound may be pre-incubated at this time if desired. • 3. Add 5 μL of 2× substrate buffer. • 4. Incubate plate at 25° C. for 3 hours. • 5. Add 10 uL of anti-phosphotyrosine antibody buffer. • 6. Read plate in BioTek Synergy Reader. Reaction Conditions for wtKIT Assay
# wtKIT [6] = target: T2, wtKIT; assay: HTRF biochemical assay, wtKIT (phosphorylation of a peptide substrate); conditions: Table 4
# Method in brief: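 wtKIT (5.0 nM) phosphorylating 1 µM FAM-labelled peptide with 400 µM ATP and 10 mM MnCl2 in 100 mM HEPES pH 7.5, 1% DMSO, 3 h at 25 °C. EDTA quench; phosphopeptide detected with anti-phosphotyrosine antibody by HTRF. Enzyme titrated for 10-20% substrate conversion.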
# CSF-1R [7] = target: T3, CSF-1R; assay: HTRF biochemical assay, CSF-1R; conditions: Table 4
# Method: as §2, §3, §4, §5
# [8] = test system: KIT phosphorylation in M-07e cells; assay: Cell-based KIT phosphorylation in M-07e cells by pKIT ELISA; parameters: species or system human; conditions: SCF stimulation
# Method: Exemplary compounds were tested for ability to inhibit KIT phosphorylation using M-07e cells as monitored by pKIT ELISA. M-07e cells are also represented as M-07E, M-07e, M07-e, M07e, Mo7e, MO7e, M07E and MO7E. Assay procedures and results are described below.
# Part I—Procedures for Determining KIT Inhibition inM-07e Cells Using pKTT ELISA Reagents and consumables: • M-07e cells: Initially obtained from Accegen, cat #ABC-TC1313 • p-cKIT Capture ELISA antibody: anti-Human Phospho-CD117/c-kit, R&D cat #DYC3527-5 • Anti-pY-HIRP antibody: R&D cat #DYC3527-5 • 25× wash buffer: Quantikine ELISA Wash Buffer 1, R&D cat #WA126 • PBS: R&D cat #DY006 • 96 well ELISA plates: Clear Polystyrene Microplates, R&D Cat #DY990 • 96 well Tissue culture plates: Corning® 96 Well TC-Treated Microplates, cat #CLS3894 • RPMI medium: ATCC® RPMI-1640 Medium, Cat #30-2001 • FBS: Fetal Bovine Serum, certified, United States Gibco, Thermo-Fisher 16000044 • GM-CSF: Recombinant Human GM-CSF Protein, R&D cat #215-GM • SCF: Recombinant Human SCF Protein, R&D cat #255-SC
# • 1. Prepare cells: • a. Culture M-07e cells in RPMI medium+20% serum+GM-CSF+penstrep • To make 50 mL of growth medium • i. 40 mL RPMI media • ii. 10 mL FBS • iii. 10 uL of GM-CSF (100 ug/mL stock) • iv. 0.5 mL pen strep (100×) • b. Harvest cells • c. Re-suspend cells in 100% RPMI media (without serum) to final concentration of 1 million cells/mL • d. Transfer 100 uL of cell solution to 11 columns of a 96 well flat bottom cell culture plate • e. Incubate cells over night at 37 C • 2. Prepare ELISA Plates: • a. Dilute capture antibody to concentration 4 ug/mL in PBS • b. Coat 96 well microplates with 100 uL of capture antibody • c. Seal plates and incubate at RT overnight • d. Wash plates with 300 uL of wash buffer • e. Repeat wash • f. Treat plates with 300 uL of blocking buffer at RT for 1 hour • 3. Addition of compounds: • a. Prepare compound dilutions in RPMI media • i. Top test concentration is 1 uM • ii. Serially dilute compounds 3× for a total of 8 concentrations • b. Add 10 uL of 10× compound dilutions to cells • i. No compounds added in column 11 (for controls) • c. Incubate cells with compounds for 2 hours at 37 C • d. Stimulate cells with SCF for 5 min at concentration of 100 ng/mL (final) • i. In column 11 stimulate top 4 wells. Leave bottom 4 wells unstimulated • e. Remove cell culture media with multichannel pipet • f. Add 110 uL of Lysis buffer to all wells • g. Incubate plates at RT for 30 min while shaking • 4. Transfer 100 uL of cell lysis to each prepared Elisa plate • 5. Add 100 uL of the standard pc-KIT dilutions to the standard wells in column 12 • a. Top concentration=2000 pg/mL • b. 2× dilutions • 6. Incubate ELISA plate with cell lysate for 2 hours at RT • 7. Wash Plate with wash buffer (wash 1) • 8. Repeat wash (wash 2) • 9. […] Add 100 uL of diluted anti-pY-HRP (1/1000 dilution in detection antibody dilution buffer) and incubate 2 hours at RT • 11. Wash plate with wash buffer (wash 1) • 12. Repeat wash (wash 2) • 13. Repeat wash (wash 3) • 14. Add 100 uL of substrate solution to each well • 15. Incubate plates 20 min • Note: Plate development is indicated by aqua color • 16. Add 50 uL of stop solution to each well • 17. Determine optical density on Bitek Synergy Neo2: • a. Make new experiment
# Select absorbance 1 set to 450 nm
# T3 sequence (P07333 20-972): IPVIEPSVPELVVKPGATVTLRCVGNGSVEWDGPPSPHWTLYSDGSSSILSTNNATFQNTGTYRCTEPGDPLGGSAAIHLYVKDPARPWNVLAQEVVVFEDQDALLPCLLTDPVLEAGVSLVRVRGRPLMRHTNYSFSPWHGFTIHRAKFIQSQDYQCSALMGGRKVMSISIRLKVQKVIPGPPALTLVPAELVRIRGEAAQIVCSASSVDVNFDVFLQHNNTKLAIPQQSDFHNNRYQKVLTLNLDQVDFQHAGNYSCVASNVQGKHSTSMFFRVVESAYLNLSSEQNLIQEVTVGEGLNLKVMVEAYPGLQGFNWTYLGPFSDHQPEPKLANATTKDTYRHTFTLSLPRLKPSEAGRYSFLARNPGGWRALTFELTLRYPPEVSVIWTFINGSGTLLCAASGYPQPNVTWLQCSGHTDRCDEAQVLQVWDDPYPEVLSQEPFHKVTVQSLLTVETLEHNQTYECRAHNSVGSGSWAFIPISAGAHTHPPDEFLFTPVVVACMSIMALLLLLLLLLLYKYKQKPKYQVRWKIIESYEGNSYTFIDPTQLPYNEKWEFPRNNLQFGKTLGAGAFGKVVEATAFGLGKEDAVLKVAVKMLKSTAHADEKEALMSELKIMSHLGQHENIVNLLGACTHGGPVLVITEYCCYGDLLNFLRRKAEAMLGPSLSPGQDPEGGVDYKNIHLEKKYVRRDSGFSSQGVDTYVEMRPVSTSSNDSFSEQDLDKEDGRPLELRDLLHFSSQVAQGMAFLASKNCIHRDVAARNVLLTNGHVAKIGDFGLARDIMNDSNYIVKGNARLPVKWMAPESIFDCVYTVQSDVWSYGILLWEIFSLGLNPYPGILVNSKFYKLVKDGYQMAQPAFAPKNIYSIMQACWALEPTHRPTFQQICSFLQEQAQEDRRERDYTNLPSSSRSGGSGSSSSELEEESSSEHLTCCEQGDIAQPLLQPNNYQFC
# T2 sequence (P10721 26-976): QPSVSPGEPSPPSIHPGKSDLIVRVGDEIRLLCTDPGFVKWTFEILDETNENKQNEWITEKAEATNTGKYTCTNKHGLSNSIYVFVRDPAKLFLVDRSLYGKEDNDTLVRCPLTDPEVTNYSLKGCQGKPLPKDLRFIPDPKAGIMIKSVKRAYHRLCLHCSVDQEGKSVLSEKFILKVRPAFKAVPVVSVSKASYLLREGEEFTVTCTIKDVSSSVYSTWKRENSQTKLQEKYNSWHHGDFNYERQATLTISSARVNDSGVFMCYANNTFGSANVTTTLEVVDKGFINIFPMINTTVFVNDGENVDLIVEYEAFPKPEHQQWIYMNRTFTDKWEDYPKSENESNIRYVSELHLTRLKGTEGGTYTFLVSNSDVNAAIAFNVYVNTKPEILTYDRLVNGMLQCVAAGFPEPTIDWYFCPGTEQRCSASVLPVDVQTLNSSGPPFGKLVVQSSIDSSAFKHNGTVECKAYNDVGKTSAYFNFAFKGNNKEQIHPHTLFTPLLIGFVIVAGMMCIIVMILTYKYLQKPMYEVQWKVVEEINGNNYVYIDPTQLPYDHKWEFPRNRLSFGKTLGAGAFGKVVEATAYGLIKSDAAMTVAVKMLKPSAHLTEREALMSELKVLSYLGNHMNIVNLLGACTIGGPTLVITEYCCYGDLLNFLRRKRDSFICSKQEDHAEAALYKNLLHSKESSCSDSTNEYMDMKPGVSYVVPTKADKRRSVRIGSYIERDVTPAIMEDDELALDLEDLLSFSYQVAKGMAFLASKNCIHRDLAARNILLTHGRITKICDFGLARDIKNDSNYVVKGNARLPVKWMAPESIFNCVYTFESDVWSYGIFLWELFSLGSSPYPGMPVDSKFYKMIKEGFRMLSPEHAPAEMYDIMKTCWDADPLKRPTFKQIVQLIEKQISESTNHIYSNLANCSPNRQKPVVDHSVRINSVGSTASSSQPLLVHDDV
# T4 sequence (P16234 24-1089): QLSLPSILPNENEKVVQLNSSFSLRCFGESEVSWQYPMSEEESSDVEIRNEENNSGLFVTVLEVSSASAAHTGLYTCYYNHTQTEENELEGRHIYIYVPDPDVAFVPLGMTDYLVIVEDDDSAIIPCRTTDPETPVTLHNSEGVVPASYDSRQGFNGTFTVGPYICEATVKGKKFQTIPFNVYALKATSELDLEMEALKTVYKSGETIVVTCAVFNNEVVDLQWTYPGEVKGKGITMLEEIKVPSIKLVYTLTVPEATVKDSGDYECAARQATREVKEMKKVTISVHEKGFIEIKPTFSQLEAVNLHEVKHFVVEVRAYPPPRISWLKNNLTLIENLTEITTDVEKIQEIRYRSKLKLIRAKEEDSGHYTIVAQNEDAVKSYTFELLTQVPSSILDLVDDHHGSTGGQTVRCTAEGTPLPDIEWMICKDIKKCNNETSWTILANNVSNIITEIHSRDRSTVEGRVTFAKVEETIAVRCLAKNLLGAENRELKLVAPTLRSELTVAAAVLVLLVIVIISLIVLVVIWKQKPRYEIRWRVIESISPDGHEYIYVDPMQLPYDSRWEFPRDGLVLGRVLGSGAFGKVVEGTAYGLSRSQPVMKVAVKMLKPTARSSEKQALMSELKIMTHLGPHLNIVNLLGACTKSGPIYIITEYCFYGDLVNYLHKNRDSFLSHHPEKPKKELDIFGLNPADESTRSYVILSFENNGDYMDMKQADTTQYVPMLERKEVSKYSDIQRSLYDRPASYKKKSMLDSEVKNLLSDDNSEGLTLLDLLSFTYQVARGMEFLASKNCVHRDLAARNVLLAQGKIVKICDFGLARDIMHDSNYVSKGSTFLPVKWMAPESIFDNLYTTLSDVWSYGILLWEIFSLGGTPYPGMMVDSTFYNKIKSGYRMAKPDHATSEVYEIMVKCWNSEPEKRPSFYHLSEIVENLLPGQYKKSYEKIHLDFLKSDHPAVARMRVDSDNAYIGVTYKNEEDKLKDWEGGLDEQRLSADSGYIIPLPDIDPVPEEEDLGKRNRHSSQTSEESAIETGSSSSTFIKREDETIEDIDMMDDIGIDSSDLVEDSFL
Compound,Solubility (μM) (Kinetic solubility assay),MDCK-BCRP: Efflux Ratio [1],MDCK-BCRP: Papp A-B ([1]; apical to basolateral),IC50 (wtKIT [2]) [nM],IC50 (CSF-1R [3]) [nM],IC50 (PDGFRα [4]) [nM],IC50 (PDGFRα [5]) [nM],IC50 (wtKIT [6]) [nM],IC50 (CSF-1R [7]) [nM],IC50 [8] [nM]
Cc1ccc(-c2noc([C@@H]3CCCO3)n2)cc1NC(=O)c1cnc2ccccn12 [Compound I-396],**** (a solubility less than or equal to 2 μM),2.86,8.25 10^−6 cm/s,≤ 50,50 to 500,500 to 5000,500 to 5000,≤ 50,50 to 500,–
Cc1cc(C)c(-c2noc(C3CC3(F)F)n2)cc1NC(=O)c1cnc2ccccn12 (racemic) [Compound I-129],**** (a solubility less than or equal to 2 μM),–,–,≤ 50,≤ 50,500 to 5000,500 to 5000,≤ 50,≤ 50,–
COCc1ccn2c(C(=O)Nc3cc(-c4noc(C)n4)ccc3C)cnc2c1 [Compound I-132],**** (a solubility less than or equal to 2 μM),–,–,≤ 50,500 to 5000,500 to 5000,500 to 5000,≤ 50,5000 to 30000,–
Cc1ccc(-c2noc(C3CC(O)C3)n2)cc1NC(=O)c1cnn2cc(-c3ccn(C)n3)ccc12 (stereo not shown) [Compound I-652],–,–,–,–,–,–,50 to 500,≤ 50,≤ 50,–
Cc1ccc(-c2noc([C@H]3CC(F)(F)CN3)n2)cc1NC(=O)c1cnn2ccccc12 [Compound I-243],* (a solubility greater than 50 μM),–,–,≤ 50,50 to 500,50 to 500,50 to 500,≤ 50,50 to 500,–
Cc1nc(-c2ccc(C)c(NC(=O)c3cnc4cc(OCCCN(C(=O)OC(C)(C)C)C5COC5)ccn34)c2)no1 [Compound I-660],–,–,–,–,–,–,500 to 5000,≤ 50,50 to 500,–
COCc1ccn2c(C(=O)Nc3cc(-c4noc(C(F)(F)F)n4)ccc3C)cnc2c1 [Compound I-664],–,–,–,–,–,–,500 to 5000,50 to 500,50 to 500,–
COCc1ccn2c(C(=O)Nc3cc(-c4noc(C)n4)ccc3F)cnc2c1 [Compound I-658],–,–,–,–,–,–,5000 to 30000,500 to 5000,500 to 5000,–
Cc1ccc(-c2noc(C3CC4(C3)CC(F)(F)C4)n2)cc1NC(=O)c1cnc2ccccn12 [Compound I-266],**** (a solubility less than or equal to 2 μM),–,–,≤ 50,≤ 50,50 to 500,–,≤ 50,–,≤ 50
COCCS(=O)(=O)N1CC[C@H]1c1nc(-c2ccc(C)c(NC(=O)c3cnc4ccccn34)c2)no1 [Compound I-189],** (a solubility greater than 10 μM and less than or equal to 50 μM),–,–,50 to 500,50 to 500,500 to 5000,500 to 5000,≤ 50,500 to 5000,–
Cc1nc(-c2ccc(F)c(NC(=O)c3cnn4cc(-c5ccn(C)n5)ccc34)c2)no1 [Compound I-657],–,–,–,–,–,–,500 to 5000,≤ 50,50 to 500,–
